Experiments:
Format in all cases: in vivo, human (patients)
[1] = test system: Patients aged 1-2 years old with Dravet Syndrome (DS); assay: Expanded access treatment with highly purified CBD extract, seizure frequency, Patient 1 (Dravet Syndrome); set-up: key to Seizure frequency, Clonic / Seizure frequency, Tonic-clonic / Seizure frequency, Focal with impairment: number of seizures per day; conditions: for Seizure frequency, Focal with impairment / Seizure frequency, Tonic-clonic: baseline 3.0; for Seizure frequency, Clonic: baseline 4.0
Description: (§1) Example 1 below describes the use of a highly purified cannabis extract comprising cannabidiol (CBD) in an expanded access treatment program in children with TRE.
(§2) Patients aged 1-2 years old with Dravet Syndrome (DS), Lennox-Gastaut Syndrome (LGS), or Tuberous Sclerosis Complex (TSC) were administered a highly purified extract of cannabidiol (CBD) obtained from a cannabis plant […].
(§3) The highly purified CBD extract (greater than 98% CBD w/w) was administered in a formulation described herein at a starting dose of 5 mg/kg/day in addition to their baseline anti-epileptic drug (AED) regimen.
(§4) The starting dose of the patients was increased from 5 mg/kg/day to 10 mg/kg/day after one week of administering the first dose of CBD.
(§5) All patients were taking at least two concomitant anti-epileptic drugs. These included clobazam; levetiracetam; topiramate; vigabatrin; phenobarbital; and lacosamide.
(§6) Prior to treatment with CBD, the number of seizures for each patient at baseline was recorded. During the course of treatment, the number of seizures that each patient experienced per day was recorded. Table 9 provides information on the demographics, seizure type, and concomitant anti-epileptic drugs (AED) for each patient that was administered the highly purified extract of CBD.

[2] = test system: Patients aged 1-2 years old with Lennox-Gastaut Syndrome (LGS); assay: Expanded access treatment with highly purified CBD extract, seizure frequency, Patient 2 (Lennox-Gastaut Syndrome); set-up: key to Seizure frequency, Clonic / Seizure frequency, Tonic / Seizure frequency, Atonic / Seizure frequency, Absence: number of seizures per day; conditions: for Seizure frequency, Tonic: baseline 4.0; for Seizure frequency, Absence: baseline 120.0; for Seizure frequency, Clonic: baseline 200.0; for Seizure frequency, Atonic: baseline 300.0
Description: as §1, §2, §3, §4, §5, §6

[3] = test system: Patients aged 1-2 years old with Tuberous Sclerosis Complex (TSC); assay: Expanded access treatment with highly purified CBD extract, seizure frequency, Patient 3 (Tuberous Sclerosis Complex); set-up: key to Seizure frequency, Focal with impairment / Seizure frequency, Focal without impairment: number of seizures per day; conditions: for Seizure frequency, Focal without impairment / Seizure frequency, Focal with impairment / Seizure frequency, Focal with secondary generalisation: Patient 3, Tuberous Sclerosis; for Seizure frequency, Focal without impairment: baseline 0.0; for Seizure frequency, Focal with impairment: baseline 25.4; for Seizure frequency, Focal with secondary generalisation: baseline 63.0
Description: as §1, §2, §3, §4, §5, §6

seizures in patients = assay: Onset of effect of seizure reduction during CBD titration; conditions: patients receiving 5 mg/kg/day; e.g., at 2, 3, 4, 5, or 6 days
[4] = Patient 1, Dravet Syndrome, 2 weeks, dose CBD 11.7 mg/kg/day
[5] = Patient 1, Dravet Syndrome, 4 weeks, dose CBD 19.2 mg/kg/day
[6] = Patient 1, Dravet Syndrome, 8 weeks, dose CBD 24.3 mg/kg/day
[7] = Patient 1, Dravet Syndrome, 16 weeks, dose CBD 25.4 mg/kg/day
[8] = Patient 1, Dravet Syndrome, 24 weeks, dose CBD 24.8 mg/kg/day
[9] = Patient 1, Dravet Syndrome, 36 weeks, dose CBD 23.0 mg/kg/day
[10] = Patient 1, Dravet Syndrome, 48 weeks, dose CBD 22.6 mg/kg/day
[11] = Patient 1, Dravet Syndrome, over the treatment period
[12] = Patient 2, Lennox-Gastaut Syndrome, 4 weeks, dose CBD 25.0 mg/kg/day
[13] = Patient 2, Lennox-Gastaut Syndrome, 8 weeks, dose CBD 50.0 mg/kg/day
[14] = Patient 2, Lennox-Gastaut Syndrome, 12 weeks, dose CBD 49.6 mg/kg/day
[15] = Patient 2, Lennox-Gastaut Syndrome, 24 weeks, dose CBD 49.0 mg/kg/day
[16] = Patient 2, Lennox-Gastaut Syndrome, 36 weeks, dose CBD 48.6 mg/kg/day
[17] = Patient 2, Lennox-Gastaut Syndrome, 60 weeks, dose CBD 3.7 mg/kg/day
[18] = Patient 2, Lennox-Gastaut Syndrome, 72 weeks, dose CBD 50.0 mg/kg/day
[19] = Patient 2, Lennox-Gastaut Syndrome, over the treatment period
[20] = Patient 3, Tuberous Sclerosis Complex, over the treatment period
[21] = 2 weeks, dose CBD 10.0 mg/kg/day
[22] = 4 weeks, dose CBD 20.0 mg/kg/day
[23] = 8 weeks, dose CBD 15.0 mg/kg/day
[24] = 16 weeks, dose CBD 15.0 mg/kg/day
[25] = 24 weeks, dose CBD 13.0 mg/kg/day
[26] = 36 weeks, dose CBD 13.0 mg/kg/day
[27] = 48 weeks, dose CBD 13.0 mg/kg/day
[28] = 60 weeks, dose CBD 11.5 mg/kg/day
[29] = 84 weeks, dose CBD 27.0 mg/kg/day
[30] = 96 weeks, dose CBD 22.0 mg/kg/day
[31] = 108 weeks, dose CBD 13.0 mg/kg/day
[32] = 120 weeks, dose CBD 29.0 mg/kg/day
[33] = 144 weeks, dose CBD 35.0 mg/kg/day

SMILES: C=C(C)[C@@H]1CCC(C)=C[C@H]1c1c(O)cc(CCCCC)cc1O [CBD, Cannabidiol]
- relief from clonic seizures after treatment ([1]; Patient 1): complete relief
- relief from focal seizures with impairment after treatment ([1]; Patient 1): complete relief
- Seizure frequency, Focal with impairment [1, 4]: 0.0
- Seizure frequency, Tonic-clonic [1, 4]: 4.0
- Seizure frequency, Clonic [1, 4]: 6.0
- Seizure frequency, Focal with impairment [1, 5]: 0.0
- Seizure frequency, Tonic-clonic [1, 5]: 2.0
- Seizure frequency, Clonic [1, 5]: 4.0
- Seizure frequency, Focal with impairment [1, 6]: 0.0
- Seizure frequency, Tonic-clonic [1, 6]: 0.0
- Seizure frequency, Clonic [1, 6]: 2.0
- Seizure frequency, Focal with impairment [1, 7]: 0.0
- Seizure frequency, Tonic-clonic [1, 7]: 0.0
- Seizure frequency, Clonic [1, 7]: 2.6
- Seizure frequency, Focal with impairment [1, 8]: 0.0
- Seizure frequency, Tonic-clonic [1, 8]: 1.6
- Seizure frequency, Clonic [1, 8]: 0.8
- Seizure frequency, Focal with impairment [1, 9]: 0.0
- Seizure frequency, Tonic-clonic [1, 9]: 6.9
- Seizure frequency, Clonic [1, 9]: 0.0
- Seizure frequency, Focal with impairment [1, 10]: 0.0
- Seizure frequency, Tonic-clonic [1, 10]: 6.5
- Seizure frequency, Clonic [1, 10]: 0.0
- reduction in clonic seizures [1, 11]: 100%
- reduction in focal seizures with impairment [1, 11]: 100%
- relief from clonic seizures after treatment ([2]; Patient 2): complete relief
- Seizure frequency, Tonic [2, 12]: 116.0
- Seizure frequency, Absence [2, 12]: 116.0
- Seizure frequency, Clonic [2, 12]: 64.0
- Seizure frequency, Atonic [2, 12]: 388.0
- Seizure frequency, Tonic [2, 13]: 48.0
- Seizure frequency, Absence [2, 13]: 78.0
- Seizure frequency, Clonic [2, 13]: 40.0
- Seizure frequency, Atonic [2, 13]: 564.0
- Seizure frequency, Tonic [2, 14]: 116.0
- Seizure frequency, Absence [2, 14]: 140.0
- Seizure frequency, Clonic [2, 14]: 40.0
- Seizure frequency, Atonic [2, 14]: 300.0
- Seizure frequency, Tonic [2, 15]: 116.0
- Seizure frequency, Absence [2, 15]: 140.0
- Seizure frequency, Clonic [2, 15]: 40.0
- Seizure frequency, Atonic [2, 15]: 280.0
- Seizure frequency, Tonic [2, 16]: 116.0
- Seizure frequency, Absence [2, 16]: 140.0
- Seizure frequency, Clonic [2, 16]: 40.0
- Seizure frequency, Atonic [2, 16]: 280.0
- Seizure frequency, Tonic [2, 17]: 1.0
- Seizure frequency, Absence [2, 17]: 40.0
- Seizure frequency, Clonic [2, 17]: 0.0
- Seizure frequency, Atonic [2, 17]: 1.0
- Seizure frequency, Tonic [2, 18]: 20.0
- Seizure frequency, Absence [2, 18]: 0.0
- Seizure frequency, Clonic [2, 18]: 0.0
- Seizure frequency, Atonic [2, 18]: 0.0
- reduction in absence seizures [2, 19]: 100%
- reduction in atonic seizures [2, 19]: 100%
- reduction in clonic seizures [2, 19]: 100%
- relief from focal seizures with impairment after treatment ([3]; Patient 3): complete relief
- reduction in focal seizures with impairment [3, 20]: 100%
- reduction in focal seizures with secondary generalisation [3, 20]: 100%
- Seizure frequency, Focal without impairment [3, 21]: 0.0
- Seizure frequency, Focal with impairment [3, 21]: 20.0
- Seizure frequency, Focal with secondary generalisation [3, 21]: 50.0
- Seizure frequency, Focal without impairment [3, 22]: 0.0
- Seizure frequency, Focal with impairment [3, 22]: 22.0
- Seizure frequency, Focal with secondary generalisation [3, 22]: 61.0
- Seizure frequency, Focal without impairment [3, 23]: 0.0
- Seizure frequency, Focal with impairment [3, 23]: 15.4
- Seizure frequency, Focal with secondary generalisation [3, 23]: 109.1
- Seizure frequency, Focal without impairment [3, 24]: 0.0
- Seizure frequency, Focal with impairment [3, 24]: 0.6
- Seizure frequency, Focal with secondary generalisation [3, 24]: 46.2
- Seizure frequency, Focal without impairment [3, 25]: 0.0
- Seizure frequency, Focal with impairment [3, 25]: 0.0
- Seizure frequency, Focal with secondary generalisation [3, 25]: 58.1
- Seizure frequency, Focal without impairment [3, 26]: 0.0
- Seizure frequency, Focal with impairment [3, 26]: 0.0
- Seizure frequency, Focal with secondary generalisation [3, 26]: 0.0
- Seizure frequency, Focal without impairment [3, 27]: 0.0
- Seizure frequency, Focal with impairment [3, 27]: 0.0
- Seizure frequency, Focal with secondary generalisation [3, 27]: 14.8
- Seizure frequency, Focal without impairment [3, 28]: 0.0
- Seizure frequency, Focal with impairment [3, 28]: 71.3
- Seizure frequency, Focal with secondary generalisation [3, 28]: 0.0
- Seizure frequency, Focal without impairment [3, 29]: 0.0
- Seizure frequency, Focal with impairment [3, 29]: 62.5
- Seizure frequency, Focal with secondary generalisation [3, 29]: 0.0
- Seizure frequency, Focal without impairment [3, 30]: 0.0
- Seizure frequency, Focal with impairment [3, 30]: 14.8
- Seizure frequency, Focal with secondary generalisation [3, 30]: 0.0
- Seizure frequency, Focal without impairment [3, 31]: 10.8
- Seizure frequency, Focal with impairment [3, 31]: 0.3
- Seizure frequency, Focal with secondary generalisation [3, 31]: 0.0
- Seizure frequency, Focal without impairment [3, 32]: 11.4
- Seizure frequency, Focal with impairment [3, 32]: 0.0
- Seizure frequency, Focal with secondary generalisation [3, 32]: 0.0
- Seizure frequency, Focal without impairment [3, 33]: 9.8
- Seizure frequency, Focal with impairment [3, 33]: 0.0
- Seizure frequency, Focal with secondary generalisation [3, 33]: 0.0
- onset of effect of seizure reduction (seizures in patients): within one week
